Where two headings read alike, the source gives them in different places.
Assays:
[1] = test system: clinical antibiotic resistant isolates of Enterococcus faecium; experiment: Checkerboard resistance breaking by SP-BIM 13; format: cell-based; conditions: for MIC of antibiotic only: antibiotic alone; for FIC antibiotic: combination with SP-BIM 13; for MIC of antibiotic in combination: with SP-BIM 13 at rescue concentration
Enterococcus faecalis = experiment: Adjuvant broth microdilution (antibiotic MIC with SP-BIM at 50 μg/mL); format: cell-based; conditions: antibiotic alone
Klebsiella pneumoniae = experiment: Checkerboard synergy (FICI) of antibiotics with SP-BIM; format: cell-based; conditions: for MIC: 24 h, antibiotic alone, read-out: MIC antibiotic only
Candida albicans = experiment: as above; set-up: MIC SP-BIM 13 only / MIC in combination: Antibiotic / MIC antibiotic only: unit not given beside the values
Streptococcus pneumoniae = experiment: Adjuvant broth microdilution (antibiotic MIC with SP-BIM at 50 μg/mL); format: cell-based; conditions: Streptococcus pneumoniae; Streptococcus pneumonia; antibiotic alone; Table 5; read-out: MIC of antibiotic, No compound
Staphylococcus aureus = experiment: Checkerboard synergy (FICI) of antibiotics with SP-BIM; format: cell-based; conditions: Staphylococcus aureus, Staphylococcus aureus; for MIC: 24 h, antibiotic alone, read-out: MIC antibiotic only
Bacillus cereus [2] = experiment: Adjuvant broth microdilution (antibiotic MIC with SP-BIM at 50 μg/mL); format: cell-based; conditions: antibiotic alone, Table 9
Escherichia coli [3] = experiment: microbe, parasite or virus in culture; format: cell-based; conditions: antibiotic alone, Table 6, read-out: MIC of antibiotic, No compound
Enterobacter cloacae = experiment: Adjuvant broth microdilution (antibiotic MIC with SP-BIM at 50 μg/mL); format: cell-based; conditions: antibiotic alone
Escherichia coli O157:H7 = format: cell-based; conditions: antibiotic alone, no SP-BIM
Escherichia coli [4] = experiment: Checkerboard synergy (FICI) of antibiotics with SP-BIM; set-up: MIC SP-BIM 13 only / MIC in combination: Antibiotic: unit not given beside the values; conditions: for MIC: 24 h
Bacillus cereus [5] = experiment: as above; format: cell-based; conditions: for MIC: 24 h, antibiotic alone, read-out: MIC antibiotic only
MRSA HS 10132 = experiment: Systemic lethal MRSA infection in mice (survival); format: in vivo; conditions: ampicillin only, 5 days
[6] = E. faecium strain RC63, antibiotic + SP-BIM 13
[7] = SP-BIM 9 in combination with the labelled antibiotic
[8] = SP-BIM 13 in combination with the labelled antibiotic
[9] = antibiotic in combination with SP-BIM 9
[10] = antibiotic in combination with SP-BIM 13
[11] = MIC of the antibiotic in combination with SP-BIM 13

Question: Which results are given for `CC1(C)S[C@@H]2[C@H](NC(=O)[C@H](N)c3ccccc3)C(=O)N2[C@H]1C(=O)O` [Ampicillin, ampicillin]?
Answer: MIC of antibiotic only ([1]; E. faecium strain 22870): 250 mg/L; FIC antibiotic ([1]; E. faecium strain 22870): 0.008; MIC of antibiotic in combination ([1]; E. faecium strain 22870): 2 mg/L; FIC compound ([1]; E. faecium strain RC63, SP-BIM 13 with the labelled antibiotic): 0252; Interpretation [1, 6]: Synergy (Synergy: FICI≤0.5); Σ FIC [1, 6]: <0.26; MIC of antibiotic only ([1]; E. faecium strain RC63): 250 mg/L; FIC antibiotic ([1]; E. faecium strain RC63): 0.008; MIC of antibiotic in combination ([1]; E. faecium strain RC63): 2 mg/L; MIC of antibiotic, No Compound (Enterococcus faecalis): 2 mg/L; MIC (Klebsiella pneumoniae; SP-BIM 9 checkerboard): 250 mg/L; MIC (Klebsiella pneumoniae; SP-BIM 13 checkerboard): 250 mg/L; FIC of SP-BIM 9 (Klebsiella pneumoniae; [7]): 1; FIC of SP-BIM 13 (Klebsiella pneumoniae; [8]): 0.3; Interpretation (Klebsiella pneumoniae; antibiotic + SP-BIM 9): Synergy (Synergy: FICI≤0.5); Σ FIC (Klebsiella pneumoniae; antibiotic + SP-BIM 9): <1.0; Interpretation (Klebsiella pneumoniae; antibiotic + SP-BIM 13): Indifferent (Indifferent: FICI>1.0-4.0); Σ FIC (Klebsiella pneumoniae; antibiotic + SP-BIM 13): <1.3; MIC in combination, Antibiotic (Klebsiella pneumoniae; [9]): 2 mg/L; MIC in combination, Antibiotic (Klebsiella pneumoniae; [10]): 250 mg/L; FIC of antibiotic (Klebsiella pneumoniae; in combination with SP-BIM 9): 0.008; FIC of antibiotic (Klebsiella pneumoniae; in combination with SP-BIM 13): 1.0; MIC (Candida albicans; 24 h, read-out: MIC antibiotic only): > 250 mg/L; MIC in combination: Antibiotic (Candida albicans; [11]): 0.5; FIC of SP-BIM 13 (Candida albicans; [8]): 0.5; Interpretation (Candida albicans; antibiotic + SP-BIM 13): Synergy (Synergy: FICI≤0.5); Σ FIC (Candida albicans; antibiotic + SP-BIM 13): <0.5; FIC of antibiotic (Candida albicans; combination with SP-BIM 13): 0.0; MIC (Streptococcus pneumoniae): 0.5 mg/L; MIC (Staphylococcus aureus; SP-BIM 9 checkerboard): 0.5 mg/L; MIC (Staphylococcus aureus; SP-BIM 13 checkerboard): 0.5 mg/L; FIC of SP-BIM 9 (Staphylococcus aureus; [7]): 0.50; FIC of SP-BIM 13 (Staphylococcus aureus; [8]): 0.0; Interpretation (Staphylococcus aureus; antibiotic + SP-BIM 9): Additive (Additive: FICI>0.5-1.0); Σ FIC (Staphylococcus aureus; antibiotic + SP-BIM 9): <0.90; Interpretation (Staphylococcus aureus; antibiotic + SP-BIM 13): Additive (Additive: FICI>0.5-1.0); Σ FIC (Staphylococcus aureus; antibiotic + SP-BIM 13): 1.0; MIC in combination, Antibiotic (Staphylococcus aureus; [9]): 0.2 mg/L; MIC in combination, Antibiotic (Staphylococcus aureus; [10]): 0.5 mg/L; FIC of antibiotic (Staphylococcus aureus; in combination with SP-BIM 9): 0.40; FIC of antibiotic (Staphylococcus aureus; in combination with SP-BIM 13): 1.0; MIC of antibiotic, No Compound (Bacillus cereus [2]): >250 mg/L; MIC (Escherichia coli [3]): 63 mg/L; MIC of antibiotic, No Compound (Enterobacter cloacae): >250 mg/L; MIC of antibiotic, No Compound (Escherichia coli O157:H7): 8 mg/L; MIC (Escherichia coli [4]; read-out: MIC antibiotic only, Escherichia coli, antibiotic alone): > 250 mg/L; MIC (Escherichia coli [4]; read-out: MIC antibiotic only, Escherichia coli, antibiotic alone, SP-BIM 9 checkerboard): 250 mg/L; MIC in combination: Antibiotic (Escherichia coli [4]; [11]): 4; FIC of SP-BIM 9 (Escherichia coli [4]; [7]): 0.064; FIC of SP-BIM 13 (Escherichia coli [4]; [8]): 0.5; Interpretation (Escherichia coli [4]; antibiotic + SP-BIM 9): Synergy (Synergy: FICI≤0.5); Σ FIC (Escherichia coli [4]; antibiotic + SP-BIM 9): <0.1; Interpretation (Escherichia coli [4]; antibiotic + SP-BIM 13): Synergy (Synergy: FICI≤0.5); Σ FIC (Escherichia coli [4]; antibiotic + SP-BIM 13): <0.5; MIC in combination, Antibiotic (Escherichia coli [4]; [9]): 4 mg/L; FIC of antibiotic (Escherichia coli [4]; combination with SP-BIM 13): 0.0; FIC of antibiotic (Escherichia coli [4]; in combination with SP-BIM 9): 0.016; MIC (Bacillus cereus [5]; SP-BIM 9 checkerboard): 8 mg/L; MIC (Bacillus cereus [5]; SP-BIM 13 checkerboard): 8 mg/L; FIC of SP-BIM 13 (Bacillus cereus [5]; [8]): 0.3; Interpretation (Bacillus cereus [5]; antibiotic + SP-BIM 13): Synergy (Synergy: FICI≤0.5); Σ FIC (Bacillus cereus [5]; antibiotic + SP-BIM 13): 0.3; MIC in combination, Antibiotic (Bacillus cereus [5]; [10]): 0.5 mg/L; FIC of antibiotic (Bacillus cereus [5]; in combination with SP-BIM 13): 0.06; mortality (MRSA HS 10132): 100%

Source: patent US12285407B2, “Bis-indolylmethane derivatives and uses thereof” (The University of The West Indies, priority 2018, dated 2025)
